Experiment [1] concerns the target T1, glucagon-like peptide-1 receptor (GLP-1R) (Homo sapiens, UniProt P43220, DEL258-263).
T1 construct: gene GLP1R; TMD residues 128–431 with intracellular loop 2 (258–263) replaced by rubredoxin, N-terminal BRIL
T1 sequence (P43220 128-257): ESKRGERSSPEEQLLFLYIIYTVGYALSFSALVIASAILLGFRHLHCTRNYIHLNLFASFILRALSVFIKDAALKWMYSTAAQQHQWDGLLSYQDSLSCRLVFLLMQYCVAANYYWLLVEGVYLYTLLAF
T1 sequence (P43220 264-431): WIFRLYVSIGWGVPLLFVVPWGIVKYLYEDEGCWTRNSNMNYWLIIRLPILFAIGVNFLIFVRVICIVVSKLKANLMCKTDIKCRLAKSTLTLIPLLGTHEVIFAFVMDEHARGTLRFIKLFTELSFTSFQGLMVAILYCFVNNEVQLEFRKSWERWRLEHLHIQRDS
Briefly: affinity MS on receptor-expressing membranes, binding index vs rhodopsin control.

A further experiment has as its target T2, 5-HT2CR (Homo sapiens, UniProt P28335).
T2 construct: gene HTR2C
T2 sequence (P28335 1-458): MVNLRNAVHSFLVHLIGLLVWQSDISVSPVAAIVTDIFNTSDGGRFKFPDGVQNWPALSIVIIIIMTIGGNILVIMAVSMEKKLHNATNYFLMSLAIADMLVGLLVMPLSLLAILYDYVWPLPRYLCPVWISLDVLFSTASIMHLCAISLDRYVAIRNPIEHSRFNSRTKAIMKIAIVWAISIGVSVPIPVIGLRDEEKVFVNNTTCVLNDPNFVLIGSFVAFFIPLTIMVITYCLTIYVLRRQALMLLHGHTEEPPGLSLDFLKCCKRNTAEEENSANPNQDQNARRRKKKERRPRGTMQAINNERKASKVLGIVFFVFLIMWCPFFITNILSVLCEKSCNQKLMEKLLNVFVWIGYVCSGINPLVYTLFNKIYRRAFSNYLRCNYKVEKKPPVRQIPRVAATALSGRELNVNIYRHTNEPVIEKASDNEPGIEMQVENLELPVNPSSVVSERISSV
Put plainly: biochemical. Also on record: CPM fluorescent dye thermal shift assay on purified receptor, Tm shift versus apo receptor. The following applies: single replicate of two; for ΔTm (°C): 100 µM, binder. The method, then: The thermal shift assay using a CPM fluorescent dye (Sigma) was performed as described in the literature.[27] […] The protein sample was heated step-wise on a Rotor-Gene Thermo-optical Analyzer (QIAGEN Gmbh) from 25 °C to 95 °C. Upon temperature rise, the proteins unfolded and cysteine residues were exposed to form adducts with CPM, which were detected by fluorescence at 387/463 nm using an EnVision multilabel plate reader (PerkinElmer). From the normalized thermal stability curve, melting temperatures (Tm) were obtained by fitting the curve with a Boltzmann sigmoidal function using GraphPad Prism. Comparison of Tm for the apo receptor and receptor incubated with a compound gave rise to Tm shift (ΔTm) for the compound. Using stringent data processing criteria for compound annotation and hit selection (see ESI ^†), we identified a total of 23 initial hits from screening the 9 cocktails (Fig. 2, full data set in Table S1 ^†). Twelve were well characterized antagonists for 5-HT2CR or a closely-related subfamily member 5-HT2AR with a mean BI of 2.16 to 9.71 (full data set in Table S2 ^†). […] While their IC50 or Ki values from the ChEMBL database were all above 10 nM, 85% had IC50 or Ki > 100 nM towards 5-HT2CR. Therefore, the stringent BI cut-off defined for hit selection ensured identification of highest affinity ligands with a minimal false-positive rate. To verify the 11 initial hits with no documented binding to the 5-HT2 receptor family, a simple mixture was created by pooling and incubating them with the receptor-expressing membranes. Four hits were verified in this secondary affinity MS assay (Fig. 3a). Those that were invalidated could have resulted from compound misidentification or altered binding properties in the original complex mixtures. […] The radioligand competition assay verified potent antagonist binding of 3943 to all three 5-HT2 receptor subtypes in the nanomolar range, with stronger affinity to 5-HT2A/2BR than 5-HT2CR (Fig. 3c, S3b ^†). It was not surprising to identify a new antagonist against three 5-HT2 receptor subfamily members using our approach because of the high sequence homology and very similar ligand binding pockets among them.

Consider 6 molecules from publication PMC5916221, “High-throughput identification of G protein-coupled receptor modulators through affinity mass spectrometry screening” (Chemical Science, 2018).

Molecules are shown by their SMILES. Values joined by “and” are separate entries in the source; they are usually repeats but may differ in a detail not shown here. Equal values may be shown once.

As for `CS(=O)(=O)c1cccc(NC(=O)N(Cc2ccc(C(=O)Nc3nnn[nH]3)cc2)c2ccc(C3CCCCC3)cc2)c1` [NNC0640], in experiment [1], the “affinity MS on receptor-expressing membranes, binding index vs rhodopsin control” value is recorded as 3.31 binding index (ratio). Same read-out and setting: as for `CC1(C)CC([C@@H](Nc2ccc(-n3cnc(C(F)(F)F)c3)nc2)c2ccc(C(=O)NCCC(=O)O)cc2)C1` [PF06372222], the figure is 16.66 binding index (ratio). On to `CC(C)c1nc(CN(C)C(=O)N[C@H](C(=O)N[C@@H](Cc2ccccc2)C[C@H](O)[C@H](Cc2ccccc2)NC(=O)OCc2cncs2)C(C)C)cs1` [compound 462, Ritonavir], for which the ΔTm at 100 µM at 5-HT2CR worked out at 0.2 °C. In the case of `C[C@@H]1CN(c2c(F)c(F)c3c(=O)c(C(=O)O)cn(C4CC4)c3c2F)C[C@H](C)N1` [compound 1382, Orbifloxacin], the ΔTm at 100 µM on 5-HT2CR amounted to 2 °C.

In the case of `O=C(NC1CCNCC1)c1n[nH]cc1NC(=O)c1c(Cl)cccc1Cl` [compound 3931, AT 7519], the “ΔTm (°C)” value at 5-HT2CR is -3.0 °C and -0.2 °C.

`C1=Cc2ccccc2C(=C2CCN(CCCCc3nn[nH]n3)CC2)c2ccccc21` [compound 3943, AT-56]: at 5-HT2CR, the ΔTm at 100 µM amounted to 6.2 °C and the “ΔTm (°C)” value amounted to 6.9 °C.
